Experiment: In vitro ability to displace the specific binding of [3H]diltiazem to diltiazem receptor in guinea pig skeletal muscle.

SMILES | Kd
C=CCN(C)CCN1C(=O)[C@H](OC(C)=O)[C@H](c2ccc(OC)cc2)Cc2c1cccc2C(F)(F)F | 420 nM
CCC[C@H]1C(=O)N(CCN(C)C)c2ccccc2C[C@H]1c1ccc(OC)cc1 | 250 nM
COc1ccc([C@@H]2Cc3c(C(=O)OCc4ccccc4)cccc3N(CCN(C)C)C(=O)[C@@H]2OC(C)=O)cc1 | 1400 nM
COc1ccc([C@@H]2Cc3c(cccc3C(F)(F)F)N(CCN(C)C(C)C)C(=O)[C@@H]2C)cc1 | 130 nM
C[C@H]1C(=O)N(CCN(C)C)c2cccc(C(F)(F)F)c2C[C@H]1c1ccc(O)cc1 | 1600 nM
COc1ccc([C@@H]2Cc3c(OC)cccc3N(CCN(C)C)C(=O)[C@@H]2OC(C)=O)cc1 | 1800 nM
COc1ccc([C@@H]2Cc3c(OC)cccc3N(CCN(C)C)C(=O)[C@@H]2C)cc1 | 400 nM
COc1ccc([C@@H]2Cc3c(cccc3C(F)(F)F)N(CCN(C)C)C(=O)[C@@H]2O)cc1 | 660 nM
COc1ccc([C@@H]2Cc3c(ccc(Br)c3OC)N(CCN(C)C)C(=O)[C@@H]2OC(C)=O)cc1 | 120 nM
COc1ccc([C@@H]2Cc3ccccc3N(CCN(C)C)C(=O)[C@@H]2OC(C)=O)cc1 | 5100 nM
CNCCN1C(=O)[C@H](OC(C)=O)[C@H](c2ccc(OC)cc2)Cc2c1cccc2C(F)(F)F | 160 nM
COc1ccc([C@@H]2Cc3c(cccc3C(F)(F)F)N(CCN(C)C(C)=O)C(=O)[C@@H]2O)cc1 | 13000 nM
COc1ccc([C@@H]2Cc3c(cccc3C(F)(F)F)N(CC[N+](C)(C)C)C(=O)[C@@H]2C)cc1 | 840 nM

Other lines, results leading:

Kd | SMILES
220 nM | COc1ccc([C@@H]2Cc3c(cccc3C(F)(F)F)N(CCN(C)CCCCc3ccccc3)C(=O)[C@@H]2OC(C)=O)cc1
570 nM | CNc1ccc([C@@H]2Cc3c(cccc3C(F)(F)F)N(CCN(C)C)C(=O)[C@@H]2C)cc1
15000 nM | CNC(=O)CN1C(=O)[C@H](OC(C)=O)[C@H](c2ccc(OC)cc2)Cc2c1cccc2C(F)(F)F
520 nM | CCCN(C)CCN1C(=O)[C@H](OC(C)=O)[C@H](c2ccc(OC)cc2)Cc2c1cccc2C(F)(F)F
1000 nM | CCc1ccc([C@@H]2Cc3c(cccc3C(F)(F)F)N(CCN(C)C)C(=O)[C@@H]2C)cc1
600 nM | CC[C@H]1C(=O)N(CCN(C)C)c2cccc(C(F)(F)F)c2C[C@H]1c1ccc(OC)cc1
320 nM | COc1ccc([C@@H]2Cc3c(cccc3C(F)(F)F)N(CC(C)N(C)C)C(=O)[C@@H]2C)cc1 (stereo partly specified)
1100 nM | CSc1ccc([C@@H]2Cc3c(cccc3C(F)(F)F)N(CCN(C)C)C(=O)[C@@H]2C)cc1
5800 nM | CNCCN1C(=O)[C@H](OC(C)=O)[C@H](c2ccc(OCCOC)cc2)Cc2c1cccc2C(F)(F)F
2000 nM | COc1ccc([C@@H]2Cc3c(cccc3C(F)(F)F)N(CCN(C)C)C(=O)[C@@H]2C)cc1OC
120 nM | COc1ccc([C@@H]2Cc3c(ccc(Br)c3OC)N(CCN(C)C)C(=O)[C@@H]2C)cc1
1800 nM | C#CCN(C)CCN1C(=O)[C@H](OC(C)=O)[C@H](c2ccc(OC)cc2)Cc2c1cccc2C(F)(F)F

Experiment: as above
Remark: another data set of the same source

Kd | SMILES
540 nM | COc1ccc([C@@H]2Cc3c(cccc3C(F)(F)F)N(C(C)CN(C)C)C(=O)[C@@H]2C)cc1 (stereo partly specified)

Source: BindingDB's records for doi:10.1021/jm00082a020 (Bristol-Myers Squibb Pharmaceutical Research Institute, 1992)
